Data taken from patent publication EP4722228A1, “NEW COMPOUND TARGETING MUSK AND USE THEREOF” (The University of Tokyo, priority 2023, dated 2024).
Numbered stars: 1 amine (or outer) side, 2 acyl side, 3 side chain; on linkers, the order of the positions; unused ones are H or OH. Bridge positions count the residues as written; N and C are the ends. Square brackets hold non-standard residues; d marks the D form. Peptide text beside a SMILES is read from it. I, II: the chains in the order shown. * marks the point of attachment. X1 = O=C(CCN1C(=O)CC([*:1])C1=O)NCCOCCOCCOCCOCCOCCOCCOCCOCCOCCOCCOCCNC(=O)CCN1C(=O)CC([*:2])C1=O; X2 = O=C(CCN1C(=O)CC([*:1])C1=O)NCCCOCCOCCOCCCNC(=O)CCN1C(=O)CC([*:2])C1=O; ClAc = O=C(CCl)*

target: T1, human MuSK (Homo sapiens, UniProt O15146); experiment: SPR binding activity test to human MuSK (Biacore); conditions: 25°C, Fc-tagged human MuSK immobilized, monomer peptides, read-out: Binding activity (KD)
T1 construct: DNA corresponding to the extracellular portion (amino acids 1-493) was amplified by a PCR method; made in house; host or cells: Expi293F cells
T1 sequence (O15146 24-493): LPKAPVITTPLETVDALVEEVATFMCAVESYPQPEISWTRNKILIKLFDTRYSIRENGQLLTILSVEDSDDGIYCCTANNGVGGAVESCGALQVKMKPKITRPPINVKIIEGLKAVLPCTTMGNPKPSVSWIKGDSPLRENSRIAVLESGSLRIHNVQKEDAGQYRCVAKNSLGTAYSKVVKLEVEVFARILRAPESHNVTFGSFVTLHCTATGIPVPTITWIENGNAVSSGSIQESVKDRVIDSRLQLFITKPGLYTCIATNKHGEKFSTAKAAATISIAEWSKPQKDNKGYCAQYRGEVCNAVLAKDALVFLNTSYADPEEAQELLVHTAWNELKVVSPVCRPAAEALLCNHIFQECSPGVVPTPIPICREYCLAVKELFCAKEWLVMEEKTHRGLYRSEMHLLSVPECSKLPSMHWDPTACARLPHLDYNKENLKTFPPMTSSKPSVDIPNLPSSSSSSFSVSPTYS
Experimental: The human MuSK protein (extracellular portion) was prepared as a recombinant protein as follows. Using a Flexi clone (FXC31275, Promega Corporation) encoding Human MuSK isoform 1 precursor (NCBI Reference Sequence: NP_005583.1) as a template, DNA corresponding to the extracellular portion (amino acids 1-493) was amplified by a PCR method. XhoI and EcoRI restriction enzyme recognition sequences were added to both the 5' and 3' ends of the amplified DNA sequence, and these were used for insertion into the multiple cloning site of a pCAG-Neo hIgG1-Fc plasmid (Fujifilm Wako Pure Chemical Corporation). This plasmid (pCAG-Neo hMuSK-Fc) enables expression of a chimeric protein of the secretory human MuSK extracellular portion and human IgG1 Fc (hMuSK-Fc; molecular weight of approximately 200 kDa) in animal cells. In practice, ExpiFectamine 293 reagent (Invitrogen) was used to transfect the pCAG-Neo hMuSK-Fc plasmid into Expi293F cells (Invitrogen), and shaking culture was carried out (for 6 days) in an incubator containing 8% CO2. Next, the culture supernatant was collected, centrifuged, and sterilized by filtration through a 0.22 µm filter. The obtained culture supernatant was subjected to Protein G purification, and finally, a purified hMuSK-Fc sample with 99.96% purity (AKTA-FPLC analysis) was obtained.
The strength of binding between MuSK and the cyclic peptides was evaluated by quantitatively measuring the binding kinetics (binding affinity (dissociation constant) KD) of the cyclic peptides to MuSK immobilized on a sensor chip via an Fc tag, using surface plasmon resonance (SPR).
According to the standard immobilization protocol provided by the manufacturer, Fc-tagged human/mouse/rat MuSK was immobilized on a Protein G chip or a Protein A chip (Cytiva). A running buffer for the monomer/dimer peptides contained 0.010 M phosphate, 0.14 M NaCl, 0.0027 M KCl, 0.05% (v/v) Tween 20, and 0.1% (v/v) DMSO. A running buffer for the monomer/dimer U-bodies contained 0.010 M phosphate, 0.14 M NaCl, 0.0027 M KCl, and 0.05% (v/v) Tween 20. A series of concentrations of each monomer peptide, dimer peptide, monomer U-body, and dimer U-body was injected as analytes. A 1:1 binding fitting analysis was applied using Biacore evaluation software, and ka, kd, and KD values were determined.
Fc-tagged human MuSK was prepared according to the procedure described in Example 1(1). In addition, Fc-tagged mouse MuSK was used by expressing a nucleotide sequence encoding the Fc-tagged mouse MuSK extracellular domain (SEQ ID NO: 34). In addition, Fc-tagged rat MuSK was used as a chimeric protein of rat MuSK and an Fc protein, namely, Recombinant Rat MuSK Fc Chimera Protein (catalog number: 9847-MK-050, R&D Systems).
The affinity of the U-bodies and their complexes obtained as described above for MuSK of human, rat, and mouse was evaluated (binding activity test). The test was carried out according to the procedure described in Example 1(3). However, for the complexes of U-bodies, surface plasmon resonance (SPR) analysis was carried out using a Biacore 8K (Cytiva).

Row | Compound | Kd
1 | CC(C)C[C@H](NC(=O)[C@H](CCC(N)=O)NC(=O)[C@H](CCCNC(=N)N)NC(=O)[C@H](CCC(N)=O)NC(=O)[C@H](CCCNC(=N)N)NC(=O)[C@H](CCC(N)=O)NC(=O)[C@H](CCCNC(=N)N)NC(=O)[C@H](CC(C)C)NC(=O)[C@H](Cc1ccccc1)NC(=O)[C@H](CC(C)C)NC(=O)[C@@H](NC(=O)[C@H](Cc1ccccc1)NC(=O)[C@H](CO)NC(=O)[C@H](CCC(=O)O)NC(=O)[C@@H]1CCCN1C(=O)[C@H](Cc1c[nH]c2ccccc12)NC(=O)[C@H](CO)NC(=O)[C@H](Cc1ccccc1)NC(=O)[C@H](CCC(=O)O)NC(=O)[C@@H]1CCCN1C(=O)[C@H](CC(C)C)NC(=O)[C@@H](Cc1ccc(O)cc1)NC(=O)CCl)C(C)C)C(=O)NCC(=O)N[C@@H](CCCNC(=N)N)C(=O)NCC(=O)N[C@@H](C)C(=O)N[C@@H](CCC(=O)O)C(N)=O [MuSK1] (ClAc-[dY]LPEFSWPESFVLFLRQRQRQLGRGAE-NH2) | 2.2 nM

same assay, conditions: human MuSK, peptide homodimers

Row | Compound | koff | kon
2 | CC(C)C[C@@H]1NC(=O)[C@H](CC(C)C)NC(=O)[C@H](CO)NC(=O)[C@H](C(C)C)NC(=O)[C@H](C(C)C)NC(=O)[C@H](CC(N)=O)NC(=O)[C@H]([C@@H](C)O)NC(=O)[C@@H]2CCCN2C(=O)[C@H](Cc2ccccc2)NC(=O)[C@@H](Cc2ccc(O)cc2)NC(=O)CSC[C@@H](C(=O)N[C@@H](CSC2CC(=O)N(CCC(=O)NCCCOCCOCCOCCCNC(=O)CCN3C(=O)CC(SC[C@H](NC(=O)[C@@H]4CSCC(=O)N[C@H](Cc5ccc(O)cc5)C(=O)N[C@@H](Cc5ccccc5)C(=O)N5CCC[C@H]5C(=O)N[C@@H]([C@@H](C)O)C(=O)N[C@@H](CC(N)=O)C(=O)N[C@@H](C(C)C)C(=O)N[C@@H](C(C)C)C(=O)N[C@@H](CO)C(=O)N[C@@H](CC(C)C)C(=O)N[C@@H](CC(C)C)C(=O)N[C@@H](CCCCN)C(=O)N[C@@H](CO)C(=O)N4)C(N)=O)C3=O)C2=O)C(N)=O)NC(=O)[C@H](CO)NC(=O)[C@H](CCCCN)NC1=O (some centres unmarked) [MuSK4 PEG3 dimer] (I: {CH2CO}-[dY]FPTNVVSLLKSCC-NH2 / II: {CH2CO}-[dY]FPTNVVSLLKSCC-NH2; linker I:14-II:14 via X2; thioether I:N-I:13, II:N-II:13) | 0.0044 s⁻¹ | 650000 M⁻¹ s⁻¹
3 | CC[C@H](C)[C@@H]1NC(=O)[C@H](CC(N)=O)NC(=O)[C@H](C(C)C)NC(=O)[C@H](Cc2ccc(O)cc2)NC(=O)CNC(=O)[C@@H]2CCCN2C(=O)[C@H](CCC(N)=O)NC(=O)[C@H](CC(C)C)NC(=O)[C@H](Cc2ccc(O)cc2)NC(=O)[C@H](Cc2c[nH]c3ccccc23)NC(=O)[C@@H](Cc2ccc(O)cc2)NC(=O)CSC[C@@H](C(=O)N[C@@H](CSC2CC(=O)N(CCC(=O)NCCOCCOCCOCCOCCOCCOCCOCCOCCOCCOCCOCCNC(=O)CCN3C(=O)CC(SC[C@H](NC(=O)[C@@H]4CSCC(=O)N[C@H](Cc5ccc(O)cc5)C(=O)N[C@@H](Cc5c[nH]c6ccccc56)C(=O)N[C@@H](Cc5ccc(O)cc5)C(=O)N[C@@H](CC(C)C)C(=O)N[C@@H](CCC(N)=O)C(=O)N5CCC[C@H]5C(=O)NCC(=O)N[C@@H](Cc5ccc(O)cc5)C(=O)N[C@@H](C(C)C)C(=O)N[C@@H](CC(N)=O)C(=O)N[C@@H]([C@@H](C)CC)C(=O)N[C@@H](C(C)C)C(=O)N[C@@H]([C@@H](C)O)C(=O)N[C@@H](CO)C(=O)N[C@@H](Cc5ccc(O)cc5)C(=O)N[C@@H](Cc5c[nH]cn5)C(=O)N4)C(N)=O)C3=O)C2=O)C(N)=O)NC(=O)[C@H](Cc2c[nH]cn2)NC(=O)[C@H](Cc2ccc(O)cc2)NC(=O)[C@H](CO)NC(=O)[C@H]([C@@H](C)O)NC(=O)[C@H](C(C)C)NC1=O (some centres unmarked) [MuSK9 PEG11 dimer] (I: {CH2CO}-[dY]WYLQPGYVNIVTSYHCC-NH2 / II: {CH2CO}-[dY]WYLQPGYVNIVTSYHCC-NH2; linker I:18-II:18 via X1; thioether I:N-I:17, II:N-II:17) | 0.0017 s⁻¹ | 440000 M⁻¹ s⁻¹
4 | I: Ac-C[dY]LPEFSWPESFVLFLRQRQRQLGRGAE-NH2 / II: Ac-C[dY]LPEFSWPESFVLFLRQRQRQLGRGAE-NH2 (linker I:1-II:1 via X2) [MuSK1Ac PEG3 dimer] | 0.0013 s⁻¹ | 300000 M⁻¹ s⁻¹

same assay, conditions: human MuSK, peptide homodimers, read-out: Kd

Row | Compound | Kd
5 | CC[C@H](C)[C@@H]1NC(=O)[C@H](CC(N)=O)NC(=O)[C@H](C(C)C)NC(=O)[C@H](Cc2ccc(O)cc2)NC(=O)CNC(=O)[C@@H]2CCCN2C(=O)[C@H](CCC(N)=O)NC(=O)[C@H](CC(C)C)NC(=O)[C@H](Cc2ccc(O)cc2)NC(=O)[C@H](Cc2c[nH]c3ccccc23)NC(=O)[C@@H](Cc2ccc(O)cc2)NC(=O)CSC[C@@H](C(=O)N[C@@H](CSC2CC(=O)N(CCC(=O)NCCOCCOCCOCCOCCOCCOCCOCCOCCOCCOCCOCCNC(=O)CCN3C(=O)CC(SC[C@H](NC(=O)[C@@H]4CSCC(=O)N[C@H](Cc5ccc(O)cc5)C(=O)N[C@@H](Cc5c[nH]c6ccccc56)C(=O)N[C@@H](Cc5ccc(O)cc5)C(=O)N[C@@H](CC(C)C)C(=O)N[C@@H](CCC(N)=O)C(=O)N5CCC[C@H]5C(=O)NCC(=O)N[C@@H](Cc5ccc(O)cc5)C(=O)N[C@@H](C(C)C)C(=O)N[C@@H](CC(N)=O)C(=O)N[C@@H]([C@@H](C)CC)C(=O)N[C@@H](C(C)C)C(=O)N[C@@H]([C@@H](C)O)C(=O)N[C@@H](CO)C(=O)N[C@@H](Cc5ccc(O)cc5)C(=O)N[C@@H](Cc5c[nH]cn5)C(=O)N4)C(N)=O)C3=O)C2=O)C(N)=O)NC(=O)[C@H](Cc2c[nH]cn2)NC(=O)[C@H](Cc2ccc(O)cc2)NC(=O)[C@H](CO)NC(=O)[C@H]([C@@H](C)O)NC(=O)[C@H](C(C)C)NC1=O (some centres unmarked) [MuSK9 PEG11 dimer] (I: {CH2CO}-[dY]WYLQPGYVNIVTSYHCC-NH2 / II: {CH2CO}-[dY]WYLQPGYVNIVTSYHCC-NH2; linker I:18-II:18 via X1; thioether I:N-I:17, II:N-II:17) | 3.9 nM
